The values below come from ChEMBL document CHEMBL3994640, “Klyflaccisteroids K-M, bioactive steroidal derivatives from a soft coral Klyxum flaccidum” (Bioorg Med Chem Lett, 2017).

One experiment relates to HT-29. Description: Cytotoxicity against human HT-29 cells after 72 hrs by alamar blue assay. It counts as functional, cell-based. To be noted: HT-29, 72 h.
In a further experiment the test system is P388. As to the kind of experiment: Cytotoxicity against mouse P388 cells after 72 hrs by alamar blue assay. It counts as functional, cell-based. To be noted: P388, 72 h.
A further experiment relates to K562. As to the kind of experiment: Cytotoxicity against human K562 cells after 72 hrs by alamar blue assay. It counts as functional, cell-based. Conditions: K562, 72 h.
The subject of a further experiment is A549. Description: Cytotoxicity against human A549 cells after 72 hrs by alamar blue assay. It counts as functional, cell-based. Conditions: A549, 72 h.
For a further experiment, the system named is DLD-1. Description: Cytotoxicity against human DLD1 cells after 72 hrs by alamar blue assay. It counts as functional, cell-based. To be noted: DLD-1, 72 h.
Experiment [1] relates to Neutrophil. As to the kind of experiment: Anti-inflammatory activity in human neutrophils assessed as inhibition of fMLP/CB-induced superoxide anion generation preincubated for 5 mins followed by cytochalasin B addition for 3 mins and fMLP for 10 mins by superoxide dismutase inhibitable reduction of ferricytochrome c based assay. The experiment is classed as functional, cell-based.

For experiment [2], the system named is Neutrophil. Description: Anti-inflammatory activity in human neutrophils assessed as inhibition of fMLP/CB-induced superoxide anion generation at 10 uM preincubated for 5 mins followed by cytochalasin B addition for 3 mins and fMLP for 10 mins by superoxide dismutase inhibitable reduction of ferricytochrome c based assay relative to control. The experiment is classed as functional.

Experiment [3] deals with Neutrophil. As to the kind of experiment: Anti-inflammatory activity in human neutrophils assessed as inhibition of fMLP/CB-induced elastase release preincubated for 5 mins followed by fMLP/CB stimulation for 10 mins using MeO-Suc-Ala-Ala-Pro-Val-p-nitroanilide as substrate. It counts as functional, cell-based.
The subject of experiment [4] is Neutrophil. Description: Anti-inflammatory activity in human neutrophils assessed as inhibition of fMLP/CB-induced elastase release at 10 uM preincubated for 5 mins followed by fMLP/CB stimulation for 10 mins using MeO-Suc-Ala-Ala-Pro-Val-p-nitroanilide as substrate. The experiment is classed as functional.

On to `CC(C)[C@@H](C)[C@@]1(C)C[C@@H]1[C@@H](C)[C@H]1CC[C@H]2[C@@H]3[C@H](O)C=C4C[C@@H](O)CC[C@]4(C)[C@@]3(O)OC[C@]12C`, for which the IC50 in the experiment with HT-29 was greater than 40 µM; in the experiment on P388 it was greater than 40 µM; in the experiment on K562 it was greater than 40 µM; with A549 it was greater than 40 µM; with DLD-1, greater than 40 µM; in the experiment on Neutrophil [1], greater than 10 µM. For the same compound, the IC50 in the experiment with Neutrophil [3] was greater than 10 µM. The inhibition at 10 µM stood at 1.21% in the experiment on Neutrophil [2] and 25.2% in the experiment on Neutrophil [4].

`COc1cccc2c1C(=O)c1c(O)c3c(c(O)c1C2=O)C[C@@](O)(C(=O)CO)C[C@@H]3O[C@H]1C[C@H](N)[C@H](O)[C@H](C)O1` [DOXORUBICIN] came in with an IC50 with HT-29 of 0.87 µM.

Turning to `CC(C)[C@@H](C)C[C@H](O)[C@@H](C)[C@H]1CC[C@H]2[C@@H]3[C@@H](O)C=C4C[C@@H](O)CC[C@]4(C)[C@H]3CC[C@]12C`, the IC50 is 36.7 µM with HT-29; 31.8 µM with P388; greater than 40 µM in the experiment on K562; greater than 40 µM with A549; greater than 40 µM in the experiment with DLD-1; greater than 10 µM in the experiment on Neutrophil [1]. Besides, the IC50 with Neutrophil [3] was determined as 5.84 µM. Further, the inhibition at 10 µM with Neutrophil [2] came out at 12.6%; with Neutrophil [4], 79.2%.

Turning to `CC(C)[C@@H](C)[C@@]1(C)C[C@@H]1[C@@H](C)[C@H]1CC[C@@H]([C@@]23C=C[C@]4(C[C@@H](O)CC[C@]4(C)C2=O)OO3)[C@]1(C)CCO`, the IC50 was 27.5 µM in the experiment with HT-29; greater than 40 µM with P388; 22.5 µM with K562; 15.8 µM with A549; 27.5 µM with DLD-1; 5.83 µM in the experiment with Neutrophil [1]. The IC50 in the experiment on Neutrophil [3] came to 1.55 µM. For the same compound, the inhibition at 10 µM stood at 67% in the experiment with Neutrophil [2] and 111% with Neutrophil [4].
